According to patent US9732065B2, “Cyclic aminomethyl pyrimidine derivative” (Sumitomo Dainippon Pharma Co., Ltd., priority 2013, dated 2017):

Tests used:
[1] = molecular target: T1, Human dopamine D4 receptor (Homo sapiens, UniProt P21917); assay: Agonistic/antagonistic activity in G protein dependent pathway (aequorin intracellular calcium luminescence), D4; format: cell-based; set-up: expressed in transfected cells; host or cells: CHO-K1 or HEK293 cells; conditions: read-out: Maximal activity on each receptor (%): D4
T1 sequence (P21917 1-419): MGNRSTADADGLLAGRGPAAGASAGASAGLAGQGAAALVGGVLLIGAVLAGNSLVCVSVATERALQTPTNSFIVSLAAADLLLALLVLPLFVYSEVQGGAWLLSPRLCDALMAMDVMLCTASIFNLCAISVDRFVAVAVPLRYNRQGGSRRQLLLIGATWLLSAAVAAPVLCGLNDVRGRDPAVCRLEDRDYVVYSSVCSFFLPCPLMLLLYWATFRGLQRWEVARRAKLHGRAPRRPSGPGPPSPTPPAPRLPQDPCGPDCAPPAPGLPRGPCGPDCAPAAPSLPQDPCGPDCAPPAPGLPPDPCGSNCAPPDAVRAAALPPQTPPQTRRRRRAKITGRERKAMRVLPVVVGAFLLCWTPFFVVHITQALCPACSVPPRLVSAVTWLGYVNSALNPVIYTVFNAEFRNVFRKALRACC
Protocol: Plasmids encoding each receptor, aequorin and Gα16 were prepared, and the plasmids were transfected into CHO cells (Chinese Hamster Ovary cells) or HEK293 cells (Human Embryonic Kidney 293 cells) to prepare expressing cell lines.
The agonistic or antagonistic activity of the present compound in the G protein dependent pathway was evaluated on the basis of intracellular calcium levels as follows. CHO-K1 or HEK293 cell lines transfected with D2, D4, α1A, or α2A receptor genes were seeded in a 384-well plate, and incubated in a CO2 incubator at 37° C. for 24 hours, and then a solution of the present compound in DMSO was added into cells preloaded with coelenterazine to measure the change in luminescent signals with a FDSS (Hamamatsu Photonics K.K.). […] The agonistic activity of the present compound was calculated according to the measured luminescent signals, as the maximal activity (Emax) of the present compound. On the other hand, the antagonistic activity of the present compound was calculated according to the luminescent signals in wells with 10 μM of an endogenous ligand alone defined as 100%, as the inhibitory activity of the present compound to an endogenous ligand. EC50 value was calculated as the concentration of the present compound required to achieve a 50% response, and IC50 was calculated as the concentration of the present compound required to achieve a 50% inhibition of the Emax of an endogenous ligand.

[2] = PK study in rat (bioavailability); format: in vivo; conditions: plasma, oral vs intravenous administration
Protocol: In this study, the pharmacokinetics of the present compound can be evaluated. Specifically, a 7-week-old SD-type or WKY-type rat received the intravenous administration of a solution of the present compound in saline or the oral administration of a suspension of the present compound in carboxymethylcellulose or methylcellulose. Blood was collected from the rat at each time below.
Intravenous administration: 5 minutes, 15 minutes, 30 minutes, 1 hour, 2 hours, 4 hours, 6 hours, and 24 hours after administration
Oral administration: 15 minutes, 30 minutes, 1 hour, 2 hours, 4 hours, 6 hours, and 24 hours after administration
Plasma was collected from the blood, the levels of the present compound in the plasma were measured by a LC-MS method, and then the pharmacokinetic parameters were calculated on the basis of the level changes.

[3] = Brain penetration study in rat; format: in vivo; conditions: brain and plasma, unbound brain-to-plasma drug concentration ratio
Protocol: In this study, the brain penetration of the present compound can be evaluated. Specifically, a 7-week-old SD-type or WKY-type rat received the subcutaneous administration of a solution of the present compound in saline or the oral administration of a suspension of the present compound in methylcellulose. Plasma and brain were collected from the treated rat 0.5 hour, 1 hour or 2 hours after the administration, and then the levels of the present compound in the plasma and the brain were measured by a LC-MS method.
The protein binding ratios of the present compound to the plasma and the brain were measured by an equilibrium dialysis method.
The levels of the present compound in the plasma and the brain as well as the plasma and brain protein binding ratios are applied to the following formula, and thus Kp,uu,brain (Unbound brain-to-plasma drug concentration ratio) can be calculated. Kp,uu,brain=(level of the present compound in the brain×(100−brain protein binding ratio (%))/100)/(level of the present compound in the plasma×(100−plasma protein binding ratio (%))/100)

Emax at 1 µM [1] | Compound | other results
63% | Cc1ncc(CN2CCC(c3cccnc3)CC2)c(N)n1 [Example 6, 2-Methyl-5-[4-(pyridin-3-yl)piperidin-1-ylmethyl]pyrimidin-4-amine] | 
64% | Cc1ncc(CN2CCC(c3cncc(F)c3)CC2)c(N)n1 [Example 7, 5-[4-(5-Fluoropyridin-3-yl)piperidin-1-ylmethyl]-2-methylpyrimidin-4-amine] | 
62% | Cc1ncc(CN2CCC(c3nccc4ccccc34)CC2)c(N)n1 [Example 8] | 
70% | Cc1ncc(CN2CCC(c3cc4ccccc4cn3)CC2)c(N)n1 [Example 9, 5-[4-(Isoquinolin-3-yl)piperidin-1-ylmethyl]-2-methylpyrimidin-4-amine] | 
101% | CCc1ncc(CN2CCC(c3ccccn3)CC2)c(N)n1 [Example 12] | 
81% | CCc1ncc(CN2CCC(c3cccnc3)CC2)c(N)n1 [Example 13] | 
78% | CC(C)c1ncc(CN2CCC(c3cccnc3)CC2)c(N)n1 [Example 16] | 
64% | Nc1nc(C2CC2)ncc1CN1CCC(c2ccccn2)CC1 [Example 19] | 
54% | Nc1nc(C2CC2)ncc1CN1CCC(c2cccnc2)CC1 [Example 20] | 
105% | Nc1nc(C2CCCC2)ncc1CN1CCC(c2ccccn2)CC1 [Example 23] | 
103% | Nc1nc(C2CCCC2)ncc1CN1CCC(c2cccnc2)CC1 [Example 24] | 
66% | CNc1nc(C)ncc1CN1CCC(c2ccccn2)CC1 [Example 27] | 
62% | CNc1nc(C)ncc1CN1CCC(c2cccnc2)CC1 [Example 28] | 
82% | Cc1ncc(CN2CCC(c3ccccn3)CC2)cn1 [Example 31] | 
68% | Cc1ncc(CN2CCC(c3cccnc3)CC2)cn1 [Example 32] | 
82% | Nc1ncc(CN2CCC(c3ccccn3)CC2)cn1 [Example 36] | bioavailability [2]: 67.2%; Kp uu [3]: 2.28
51% | Cc1ncc(CN2CCC(c3ccccn3)CC2C)c(N)n1 (stereo not shown) [Example 38, 2-Methyl-5-[2-methyl-4-(pyridin-2-yl)piperidin-1-ylmethyl]pyrimidin-4-amine] | 
49% | Cc1ncc(CN2CCC(c3cccnc3)CC2C)c(N)n1 (stereo not shown) [Example 39, 2-Methyl-5-[2-methyl-4-(pyridin-3-yl)piperidin-1-ylmethyl]pyrimidin-4-amine] | 
72% | Cc1ncc(CN2CCC(c3ccccn3)C(C)C2)c(N)n1 (stereo not shown) [Example 40, 2-Methyl-5-[3-methyl-4-(pyridin-2-yl)piperidin-1-ylmethyl]pyrimidin-4-amine] | 
59% | Cc1ncc(CN2CCC(c3cccnc3)C(C)C2)c(N)n1 (stereo not shown) [Example 41, 2-Methyl-5-[3-methyl-4-(pyridin-3-yl)piperidin-1-ylmethyl]pyrimidin-4-amine] | 
71% | Cc1ncc(CN2CCCC(c3ccccn3)CC2)c(N)n1 (stereo not shown) [Example 42, 2-Methyl-5-[4-(pyridin-2-yl)azepan-1-ylmethyl]pyrimidin-4-amine] | 
92% | Cc1ncc(CN2CCCC(c3cccnc3)CC2)c(N)n1 (stereo not shown) [Example 43, 2-Methyl-5-[4-(pyridin-3-yl)azepan-1-ylmethyl]pyrimidin-4-amine] | 
51% | Cc1ncc(CN2CCC(c3nccs3)CC2)c(N)n1 [Example 47, 2-Methyl-5-[4-(1,3-thiazol-2-yl)piperidin-1-ylmethyl]pyrimidin-4-amine] | 
62% | Cc1ncc(CN2CCC(c3cncc(F)c3)CC2)c(C)n1 [Example 48, 5-[4-(5-Fluoropyridin-3-yl)piperidin-1-ylmethyl]-2,4-dimethylpyrimidine] | 
66% | Cc1cncc(C2CCN(Cc3cnc(C)nc3N)CC2)c1 [Example 53] | 
62% | Cc1ccnc(C2CCN(Cc3cnc(C)nc3N)CC2)c1 [Example 57, 2-Methyl-5-[4-(4-methylpyridin-2-yl)piperidin-1-ylmethyl]pyrimidin-4-amine] | 

Compound | Emax at 1 µM [1] | other results
Cc1ncc(CN2CC=C(c3ccccn3)CC2)c(N)n1 [Example 1, 5-(3′,6′-Dihydro-2,4′-bipyridin-1′(2′H)-ylmethyl)-2-methylpyrimidin-4-amine] | 62% | 
Cc1ncc(CN2CC=C(c3ncccc3F)CC2)c(N)n1 [Example 3, 5-(3-Fluoro-3′,6′-dihydro-2,4′-bipyridin-1′(2′H)-ylmethyl)-2-methylpyrimidin-4-amine] | 69% | 
Cc1ncc(CN2CC=C(c3cncc(F)c3)CC2)c(N)n1 [Example 4, 5-(5-Fluoro-3′,6′-dihydro-3,4′-bipyridin-1′(2′H)-ylmethyl)-2-methylpyrimidin-4-amine] | 65% | 
CCc1ncc(CN2CC=C(c3ccccn3)CC2)c(N)n1 [Example 10, 5-(3′,6′-Dihydro-2,4′-bipyridin-1′(2′H)-ylmethyl)-2-ethylpyrimidin-4-amine] | 110% | 
CCc1ncc(CN2CC=C(c3cccnc3)CC2)c(N)n1 [Example 11] | 93% | 
CC(C)c1ncc(CN2CC=C(c3ccccn3)CC2)c(N)n1 [Example 14] | 87% | 
CC(C)c1ncc(CN2CC=C(c3cccnc3)CC2)c(N)n1 [Example 15] | 131% | 
Nc1nc(C2CC2)ncc1CN1CC=C(c2ccccn2)CC1 [Example 17] | 72% | 
Nc1nc(C2CC2)ncc1CN1CC=C(c2cccnc2)CC1 [Example 18] | 58% | 
Nc1nc(C2CCCC2)ncc1CN1CC=C(c2ccccn2)CC1 [Example 21] | 93% | 
Nc1nc(C2CCCC2)ncc1CN1CC=C(c2cccnc2)CC1 [Example 22] | 72% | 
CNc1nc(C)ncc1CN1CC=C(c2ccccn2)CC1 [Example 25] | 71% | 
CNc1nc(C)ncc1CN1CC=C(c2cccnc2)CC1 [Example 26] | 75% | 
Cc1ncc(CN2CC=C(c3ccccn3)CC2)cn1 [Example 29, 1′-[(2-Methylpyrimidin-5-yl)methyl]-1′,2′,3′,6′-tetrahydro-2,4′-bipyridine] | 107% | 
Cc1ncc(CN2CC=C(c3cccnc3)CC2)cn1 [Example 30] | 86% | 
Nc1ncc(CN2CC=C(c3ccccn3)CC2)cn1 [Example 34, 5-(3′,6′-Dihydro-2,4′-bipyridin-1′(2′H)-ylmethyl)pyrimidin-2-amine] | 93% | 
Nc1ncc(CN2CC=C(c3cccnc3)CC2)cn1 [Example 35] | 86% | 
Cc1ncc(CN2CC=C(c3cccnc3)CC2)c(C)n1 [Example 49] | 66% | 
Cc1ncc(CN2CC=C(c3ccccn3)CC2)c(C)n1 [Example 50] | 70% | 
Cc1ccnc(C2=CCN(Cc3cnc(C)nc3N)CC2)c1 [Example 51] | 88% | 
Cc1cccc(C2=CCN(Cc3cnc(C)nc3N)CC2)n1 [Example 52] | 67% | 
Cc1cncc(C2=CCN(Cc3cnc(C)nc3N)CC2)c1 [Example 54] | 60% | 
Cc1ncc(CN2CC=C(c3cc(Cl)ccn3)CC2)c(N)n1 [Example 55] | 88% | 
Cc1ncc(CN2CC=C(c3cccc(Cl)n3)CC2)c(N)n1 [Example 56] | 40% | 
